Laboratory results: PubChem BioAssay AID1963854 (Molecular Pharmacology Branch, DTP, NCI, 2024)

System: 186277-243-T-J2-PDC complex spheroid viability
Assay: Anticancer human tumor 186277-243-T-J2-PDC patient-derived colon adenocarcinoma cell line growth inhibition [POLQ]
Settings: for IC50: curve of first compound; for viability, T/C: stronger effect = lower value
Summary of the method: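 Three-cell-type spheroids modelling solid tumor plus stroma served as the readout system; POL inhibitors were tested individually and in combination, concentration ranges set by clinical Cmax where known.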

[1] = second compound 0.0316 µM, first compound 0.0316 µM
[2] = second compound 0.0316 µM, first compound 0.1 µM
[3] = second compound 0.1 µM, first compound 0.0316 µM
[4] = second compound 0.1 µM, first compound 0.1 µM
[5] = second compound 0.316 µM, first compound 0.0316 µM
[6] = second compound 0.316 µM, first compound 0.1 µM
[7] = second compound 1 µM, first compound 0.0316 µM
[8] = second compound 1 µM, first compound 0.1 µM
[9] = second compound 3.16 µM, first compound 0.0316 µM
[10] = second compound 3.16 µM, first compound 0.1 µM
[11] = second compound 10 µM, first compound 0.0316 µM
[12] = second compound 10 µM, first compound 0.1 µM
[13] = second compound 0.0316 µM, first compound 0.316 µM
[14] = second compound 0.0316 µM, first compound 1 µM
[15] = second compound 0.0316 µM, first compound 3.16 µM
[16] = second compound 0.0316 µM, first compound 10 µM
[17] = second compound 0.1 µM, first compound 0.316 µM
[18] = second compound 0.1 µM, first compound 1 µM
[19] = second compound 0.1 µM, first compound 3.16 µM
[20] = second compound 0.1 µM, first compound 10 µM
[21] = second compound 0.316 µM, first compound 0.316 µM
[22] = second compound 0.316 µM, first compound 1 µM
[23] = second compound 0.316 µM, first compound 3.16 µM
[24] = second compound 0.316 µM, first compound 10 µM
[25] = second compound 1 µM, first compound 0.316 µM
[26] = second compound 1 µM, first compound 1 µM
[27] = second compound 1 µM, first compound 3.16 µM
[28] = second compound 1 µM, first compound 10 µM
[29] = second compound 3.16 µM, first compound 0.316 µM
[30] = second compound 3.16 µM, first compound 1 µM
[31] = second compound 3.16 µM, first compound 3.16 µM
[32] = second compound 3.16 µM, first compound 10 µM
[33] = second compound 10 µM, first compound 0.316 µM
[34] = second compound 10 µM, first compound 1 µM
[35] = second compound 10 µM, first compound 3.16 µM
[36] = second compound 10 µM, first compound 10 µM
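Also: spheroids exposed to compounds for seven days.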
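For viability, T/C in this document: 100% = DMSO vehicle control viability.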

Work on `Cn1ncnc1[C@H]1c2n[nH]c(=O)c3cc(F)cc(c23)N[C@@H]1c1ccc(F)cc1` + Nc1ccc(C#CCN(C(=O)Cc2ncc(C(F)(F)F)cc2C(F)(F)F)c2ccc(F)cc2)nn1 yielded an IC50 (second compound 0.0316 µM) greater than 0.1 µM, an IC50 (second compound 0.1 µM) greater than 0.1 µM and an IC50 (second compound 0.316 µM) greater than 0.1 µM. The IC50 (second compound 1 µM) was greater than 0.1 µM, the IC50 (second compound 3.16 µM) was greater than 0.1 µM and the IC50 (second compound 10 µM) was greater than 0.1 µM. For the same compound, the viability, T/C (second compound 0.0316 µM, first compound 0.000316 µM) was 101%, the viability, T/C (second compound 0.0316 µM, first compound 0.001 µM) was 90.9% and the viability, T/C (second compound 0.0316 µM, first compound 0.00316 µM) was 110%. The viability, T/C (second compound 0.0316 µM, first compound 0.01 µM) was 113%, the viability, T/C [1] was 130% and the viability, T/C [2] was 124%. For the same compound, the viability, T/C (second compound 0.1 µM, first compound 0.000316 µM) was 103%, the viability, T/C (second compound 0.1 µM, first compound 0.001 µM) was 101% and the viability, T/C (second compound 0.1 µM, first compound 0.00316 µM) was 111%. It also gave a viability, T/C (second compound 0.1 µM, first compound 0.01 µM) of 105%, a viability, T/C [3] of 125% and a viability, T/C [4] of 142%. The viability, T/C (second compound 0.316 µM, first compound 0.000316 µM) was 87.5%, the viability, T/C (second compound 0.316 µM, first compound 0.001 µM) was 110% and the viability, T/C (second compound 0.316 µM, first compound 0.00316 µM) was 102%. The viability, T/C (second compound 0.316 µM, first compound 0.01 µM) was 111%, the viability, T/C [5] was 119% and the viability, T/C [6] was 143%. For the same compound, the viability, T/C (second compound 1 µM, first compound 0.000316 µM) was 91.3%, the viability, T/C (second compound 1 µM, first compound 0.001 µM) was 116% and the viability, T/C (second compound 1 µM, first compound 0.00316 µM) was 103%. For the same compound, the viability, T/C (second compound 1 µM, first compound 0.01 µM) was 106%, the viability, T/C [7] was 120% and the viability, T/C [8] was 126%. For the same compound, the viability, T/C (second compound 3.16 µM, first compound 0.000316 µM) was 92.3%, the viability, T/C (second compound 3.16 µM, first compound 0.001 µM) was 111% and the viability, T/C (second compound 3.16 µM, first compound 0.00316 µM) was 112%. It also gave a viability, T/C (second compound 3.16 µM, first compound 0.01 µM) of 105%, a viability, T/C [9] of 116% and a viability, T/C [10] of 140%. The viability, T/C (second compound 10 µM, first compound 0.000316 µM) was 93.4%, the viability, T/C (second compound 10 µM, first compound 0.001 µM) was 104% and the viability, T/C (second compound 10 µM, first compound 0.00316 µM) was 106%. For the same compound, the viability, T/C (second compound 10 µM, first compound 0.01 µM) was 103%, the viability, T/C [11] was 117% and the viability, T/C [12] was 121%.

Compound `O=C(Nc1ccc(O)c(NS(=O)(=O)c2ccc(F)cc2)c1)c1ccc(-c2ccccc2)cc1` + COC1C(OC(N)=O)C(O)C(Oc2ccc3c(O)c(NC(=O)c4ccc(O)c(CC=C(C)C)c4)c(=O)oc3c2C)OC1(C)C has an IC50 (second compound 0.0316 µM) greater than 10 µM, an IC50 (second compound 0.1 µM) greater than 10 µM and an IC50 (second compound 0.316 µM) greater than 10 µM. For the same compound, the IC50 (second compound 1 µM) was greater than 10 µM, the IC50 (second compound 3.16 µM) was greater than 10 µM and the IC50 (second compound 10 µM) was greater than 10 µM. It also gave a viability, T/C [1] of 89%, a viability, T/C [2] of 113% and a viability, T/C [13] of 107%. It also gave a viability, T/C [14] of 99%, a viability, T/C [15] of 105% and a viability, T/C [16] of 94.3%. For the same compound, the viability, T/C [3] was 107%, the viability, T/C [4] was 105% and the viability, T/C [17] was 102%. For the same compound, the viability, T/C [18] was 98.2%, the viability, T/C [19] was 107% and the viability, T/C [20] was 93.1%. The viability, T/C [5] was 96.2%, the viability, T/C [6] was 104% and the viability, T/C [21] was 116%. For the same compound, the viability, T/C [22] was 104%, the viability, T/C [23] was 119% and the viability, T/C [24] was 96%. It also gave a viability, T/C [7] of 90.8%, a viability, T/C [8] of 101% and a viability, T/C [25] of 116%. It also gave a viability, T/C [26] of 95%, a viability, T/C [27] of 125% and a viability, T/C [28] of 99.4%. The viability, T/C [9] was 90.1%, the viability, T/C [10] was 103% and the viability, T/C [29] was 111%. It also gave a viability, T/C [30] of 103%, a viability, T/C [31] of 105% and a viability, T/C [32] of 91.5%. It also gave a viability, T/C [11] of 91.9%, a viability, T/C [12] of 111% and a viability, T/C [33] of 103%. It also gave a viability, T/C [34] of 103%, a viability, T/C [35] of 108% and a viability, T/C [36] of 101%.

Work on `CCc1cc2c(N3CCc4c(cc(Cn5ccnc5)cc4-c4cn(C)nc4C(F)(F)F)C3=O)cc(C)nc2c(OC)n1` + Nc1ccc(C#CCN(C(=O)Cc2ncc(C(F)(F)F)cc2C(F)(F)F)c2ccc(F)cc2)nn1 yielded an IC50 (second compound 0.0316 µM) greater than 10 µM, an IC50 (second compound 0.1 µM) greater than 10 µM and an IC50 (second compound 0.316 µM) greater than 10 µM. It also gave an IC50 (second compound 1 µM) greater than 10 µM, an IC50 (second compound 3.16 µM) greater than 10 µM and an IC50 (second compound 10 µM) greater than 10 µM. For the same compound, the viability, T/C [1] was 97%, the viability, T/C [2] was 104% and the viability, T/C [13] was 96%. The viability, T/C [14] was 117%, the viability, T/C [15] was 119% and the viability, T/C [16] was 95.8%. It also gave a viability, T/C [3] of 95.3%, a viability, T/C [4] of 89.4% and a viability, T/C [17] of 96.9%. The viability, T/C [18] was 108%, the viability, T/C [19] was 124% and the viability, T/C [20] was 97.2%. It also gave a viability, T/C [5] of 107%, a viability, T/C [6] of 89.2% and a viability, T/C [21] of 96.6%. For the same compound, the viability, T/C [22] was 101%, the viability, T/C [23] was 89.7% and the viability, T/C [24] was 86%. It also gave a viability, T/C [7] of 95.1%, a viability, T/C [8] of 106% and a viability, T/C [25] of 101%. For the same compound, the viability, T/C [26] was 98.7%, the viability, T/C [27] was 114% and the viability, T/C [28] was 90.6%. For the same compound, the viability, T/C [9] was 104%, the viability, T/C [10] was 88.4% and the viability, T/C [29] was 91.8%. The viability, T/C [30] was 87.6%, the viability, T/C [31] was 109% and the viability, T/C [32] was 87.3%. For the same compound, the viability, T/C [11] was 102%, the viability, T/C [12] was 95.5% and the viability, T/C [33] was 94.1%. It also gave a viability, T/C [34] of 106%, a viability, T/C [35] of 95.6% and a viability, T/C [36] of 76.2%.
